Data published in paper PMC8674134, “Safety and efficacy of avapritinib in advanced systemic mastocytosis: the phase 1 EXPLORER trial” (Nature Medicine, 2021).
“Also recorded” adds a separate entry of the source.

Assays:
[1] = test system: KIT D816V; set-up: method as in PMID 29093181; details: immunoblot in a xenograft model; cited from earlier work
[2] = test system: patients with AdvSM and other myeloid malignancies; experiment: 3 + 3 dose escalation: MTD, DLT and RP2D; assay type: in vivo
Experimental: This phase 1, open-label study comprised a dose-escalation phase (part 1) and a dose-expansion phase (part 2; Fig. 1). During dose escalation, patients received oral avapritinib at starting doses ranging from 30 to 400 mg QD in continuous 28-d treatment cycles. Dose escalation followed a 3 + 3 design (described below) until the MTD or RP2D was determined. During part 1, intra-patient dose escalation to assess dose levels not exceeding the MTD was allowed. Dose expansion was initially conducted at a starting dose of 300 mg QD; a second expansion cohort at 200 mg QD was subsequently introduced via protocol amendment. Dosing continued until patients experienced unacceptable toxicity, disease progression, death or withdrew consent.
The 3 + 3 dose-escalation design used cohorts of three to six patients. The first cohort received avapritinib at a starting dose of 30 mg daily. […] Three patients were enrolled initially in each cohort with an additional accrual of three patients if the cohort required expansion due to DLT. Once the escalation cohort was full, up to three additional patients (diagnosis of AdvSM only) could be enrolled into an enrichment cohort at a lower dose. Data from these patients were intended for further exploration of PK, pharmacodynamics and safety in patients with AdvSM.
The safety population included all enrolled patients and was used to report AEs and PROs (in those who completed the questionnaire). The dose-determining population included all patients in a cohort in part 1 who received ≥21 prescribed avapritinib doses in C1 and completed follow-up through C1, or experienced DLT. The determination of the MTD and RP2D were based on the dose-determining population. […] The AdvSM safety population was also used to report AEs and OS. […] The response-evaluable population was used to report adjudicated response rates and PFS. The PK population comprised all patients with sufficient plasma concentration–time data to reliably estimate the PK parameters of avapritinib.

[3] = test system: mast cell burden in patients with AdvSM; experiment: Changes in measures of mast cell burden (BM mast cells, serum tryptase, spleen volume); assay type: in vivo, human
Experimental: Other secondary endpoints included PK, DOR and changes in measures of mast cell burden (percentage of BM mast cells, serum tryptase concentration, KIT D816V VAF by ddPCR (detection limit 0.17%), and spleen and liver volumes). PROs were measured by daily completion of AdvSM-SAF (described below) for patients in part 2 as a secondary outcome[37]–[39]. Exploratory endpoints included time to response, PFS and OS.
The percentage change from baseline in spleen and liver volume as measured by central radiographic assessment using an MRI or a CT scan was summarized over time in the safety population. In addition, maximum percentage reduction was presented in waterfall plots.
Responses were assessed according to the protocol schedule. Spleen size was assessed by palpation and by imaging with calculation of volume centrally. KIT D816V VAF in the BM (or in blood if unavailable) was centrally measured using a validated ddPCR assay with a lower limit of detection of 0.17% (Bio-Rad). Other somatic mutations in BM were centrally assayed at baseline by next-generation sequencing.

[4] = test system: advanced systemic mastocytosis (AdvSM); experiment: Kaplan–Meier estimates of DOR, PFS and OS; assay type: in vivo, human
Experimental: Spleen response was determined for patients with baseline splenomegaly (spleen ≥ 5 cm by palpation) and was assessed by palpation or spleen volume by imaging (that is, ≥35% reduction from baseline in spleen volume based on central imaging); presence of either criterion was considered a response. DOR started at the first evidence of a response in any evaluable C-finding (per mIWG-MRT-ECNM criteria) and ended at the time a response was lost (that is, loss of response per mIWG-MRT-ECNM criteria). For patients who were still responding at the time of analysis, DOR was censored at the latest time point that the patient is assessed as having clinical improvement or better. OS was analyzed in the safety population and was defined as the time from first dose to the time of death due to any cause. PK data were summarized for patients with sufficient plasma concentration–time data. Descriptive statistics were used to summarize PK parameters for each dose level, as appropriate.
ORR was defined as the proportion of patients with a confirmed best response of CR, CRh, PR or clinical improvement by mIWG-MRT-ECNM consensus criteria. Time to CR/CRh/PR was defined as the time from the start of treatment to the time a CR/CRh/PR by mIWG-MRT-ECNM was first met. DOR was defined as the time from first documented response to the date of first documented progressive disease/loss of response or death due to any cause, whichever occurred first. OS was defined as the time from the start of treatment to the date of death. PFS was defined as the time from the start of treatment to the date of first documented progressive disease or death due to any cause, whichever occurred first. Progressive disease was defined per mIWG-MRT-ECNM criteria as worsening of ≥1 baseline C-finding confirmed for at least 4 weeks, or progression to acute myeloid leukemia.
OS, PFS and DOR were determined by Kaplan–Meier estimates, and 95% CIs were estimated using Greenwood’s formula[41]. Comparisons between two Kaplan–Meier functions was performed using a log-rank test.

Q: With `Cn1cc(-c2cc3c(N4CCN(c5ncc([C@@](C)(N)c6ccc(F)cc6)cn5)CC4)ncnn3c2)cn1` [avapritinib] as the compound, how does the “In vivo IC90 for inhibition of KIT D816V in xenograft model” value [1] read?
A: 189 ng/mL

Q: And the “Maximum tolerated dose (MTD)” value ([2]; doses of 30–400 mg once daily)?
A: No maximum tolerated dose (MTD) was determined; also recorded: not reached

Q: What about the “Recommended phase 2 dose (RP2D)” value ([2]; human, in vivo, 28 d) of the same compound?
A: 200 mg

Q: And the “Recommended phase 2 dose (RP2D) initially selected for part 2” value ([2]; human, in vivo, 28 d)?
A: 300 mg QD

Q: What about the “Patients with dose-limiting toxicity (DLT)” value ([2]; in vivo) of the same compound?
A: one

Q: What about the “Patients with spleen volume reduced by ≥35%” value ([3]; 66 patients with a baseline spleen volume assessment) of the same compound?
A: 82%

Q: What about the “Patients with BM mast cells decreased by ≥50%” value ([3]; patients with AdvSM) of the same compound?
A: 92%

Q: And the “Patients with mast cell aggregates eliminated” value ([3]; patients with AdvSM)?
A: 77%

Q: What about the “Patients with serum tryptase reduced by ≥50%” value ([3]; patients with AdvSM) of the same compound?
A: 99%

Q: What about the “Patients with serum tryptase reduced to <20 ng ml^−1” value ([3]; patients with AdvSM) of the same compound?
A: 74%

Q: And the “Median duration of response (DOR)” value ([4]; 95% CI, 22 months–not estimable)?
A: 38 months

Q: What about the “Estimated 24-month DOR rate” value ([4]; 95% CI, 49–84%) of the same compound?
A: 67%

Q: What about the “Estimated 12-month DOR rate” value ([4]; 95% CI, 72–96%) of the same compound?
A: 84%

Q: What about the “Median OS” value ([4]; AdvSM safety population (n = 69), median follow-up 23 months) of the same compound?
A: not reached

Q: What about the “Estimated 24-month OS rate” value ([4]; overall AdvSM, 95% CI, 64–87%) of the same compound?
A: 76%

Q: What about the “Estimated 24-month OS rate” value ([4]; patients with ASM) of the same compound?
A: 100%

Q: And the “Estimated 24-month OS rate” value ([4]; patients with MCL, 95% CI, 76–100%)?
A: 92%

Q: What about the “Estimated 24-month OS rate” value ([4]; patients with SM-AHN) of the same compound?
A: 67%

Q: And the “OS (24-month OS rate)” value ([4]; patients with a MARS of 0–1, post hoc)?
A: 100%

Q: What about the “Estimated PFS rate at 24 months” value ([4]; response-evaluable population (n = 53), 95% CI, 48–79%) of the same compound?
A: 63%

Q: And the “Estimated PFS rate at 12 months” value ([4]; response-evaluable population (n = 53), 95% CI, 73–94%)?
A: 84%

Q: And the “Patients who progressed to acute myeloid leukemia” value ([4]; six patients, during the study)?
A: 9%
